Reference: patent US20050163778A1, “Extracorporeal photopheresis in combination with anti-TNF treatment” (priority 2003, published 2005)

System: TNFα production by monocyte-derived dendritic cells
Experiment: Examples 2-4: TNFα production by LPS-stimulated monocyte-derived dendritic cells (ELISA of culture supernatants)
Assay type: cell-based, human
Details: 48 hours
Description: In examples 1-5, Monocyte-derived dendritic cells were obtained as follows: PBMC were isolated from the peripheral blood of healthy donors by fractionation over Ficoll-Hypaque gradient centrifugation. Monocytes were positively selected using the MACS CD14 isolation kit and the Automacs system (Miltenyi Biotec, Germany). CD14^+ monocytes were cultured in complete RPMI supplemented with 40 ng/ml IL-4 and GM-CSF (R&D Systems) for 5 days. Cytokine secretion was induced by stimulation of the dendritic cells with lypopolysacharides (“LPS”, Sigma). Standard ELISA procedures were used to measure TNFα and IL-12 (R&D Systems) levels in culture supernatants.
Culture supernatants were harvested from these cultures at 48 hours for measurement of TNFα production. […] While each of these treatments represent a reduction from the baseline value of over 1000 pg/ml, the levels dropped to an average of less than 50 pg/ml when the method of the invention was used.
Culture supernatants were harvested from these cultures at 48 hours for quantitation of TNFα production. […] While each of these treatments represent a reduction from the baseline value of over 2300 pg/ml, the levels dropped to about 100 pg/ml when the method of the invention was used.
Culture supernatants were harvested from these cultures at 48 hours for measurement of TNFα production. Another group of dendritic cells were similarly treated and the culture supernatants were harvested from these cultures at 48 hours for quantitation of TNFα production.

infliximab [Remicade mAb]
TNFα in culture supernatant (Example 2, increasing quantities of LPS, Remicade mAb 200 ng/ml, ECP-treated CD15+ cells 5×10^5 cells/well, baseline over 1000 pg/ml): about 100 pg/ml | TNFα in culture supernatant (Example 3, 0.1 mg/ml LPS, Remicade mAb 200 ng/ml, ECP-treated CD15+ cells 5×10^5 cells/well, baseline over 2300 pg/ml): about 500 pg/ml | TNFα in culture supernatant (Example 4, 8 ng/ml Remicade mAb, alone or with ECP): greater than 1300 pg/ml | TNFα in culture supernatant (Example 4, about 2 ng/ml Remicade mAb, alone or with ECP): ~1000 pg/mL
